From US9944645B2, “Imidazotriazines and imidazopyrimidines as kinase inhibitors” (Incyte Holdings Corporation, priority 2006, dated 2018)

Molecular target: c-Met kinase (h-Met; histidine-tagged c-Met catalytic domain fusion protein) (Homo sapiens (Human), UniProt P08581)
Assay: In Vitro c-Met Kinase Enzyme Assays
Format: biochemical
Conditions: phosphorylation of poly Glu-Tyr, 5 μM ATP, 25 minutes at 30° C.
Protocol: Compounds were screened in vitro for their ability to inhibit c-Met kinase activity. […] Briefly, histidine-tagged c-Met catalytic domain fusion protein (Invitrogen, #PV3143) was used for the assay. […] The reaction lasted for 25 minutes at 30° C. After the reaction was completed, the contents of the plates was discarded. Plates were then washed with TBS-T (250 μL/well, 5×) and then blocked with TBS-T containing 1% BSA for 2 hours. The contents of the plates was discarded, and 100 μL (per well) of peroxidase-labeled anti-phospho-tyrosine antibody (Sigma, #A5964) diluted (1:60,000) in 1% BSA containing TBS-T were then added and incubated for 1 hour. Plates were washed with TBS-T ([…], 5×) and followed by the color reaction using 100 μL (1:1 mixture) of H2O2 and tetramethylbenzidine (R&D Systems, #DY999). The reaction was stopped in minutes with 100 μL of 2 N H2SO4. The optical density was measured immediately using a microplate reader at 450 nm with wavelength correction at 540 nm. IC50 values were calculated with the GraphPad Prism software. The linear range (i.e., the time period over which the rate remained equivalent to the initial rate) was determined for the kinase and IC50 determinations were performed within this range.

Sequence of c-Met kinase (h-Met; histidine-tagged c-Met catalytic domain fusion protein) (P08581 1078-1345): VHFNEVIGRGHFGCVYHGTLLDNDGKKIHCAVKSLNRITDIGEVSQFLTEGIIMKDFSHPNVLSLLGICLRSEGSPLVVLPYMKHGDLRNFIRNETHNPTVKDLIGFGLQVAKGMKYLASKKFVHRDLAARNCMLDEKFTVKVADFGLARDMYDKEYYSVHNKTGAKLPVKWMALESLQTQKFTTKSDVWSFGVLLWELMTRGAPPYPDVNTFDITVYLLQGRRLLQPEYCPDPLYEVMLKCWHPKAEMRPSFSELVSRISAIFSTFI

| Compound | IC50 [nM] |
| --- | --- |
| COCC1(NC(=O)c2ccc(-c3cnc4ncc(Cc5ccc6ncccc6c5)n4n3)cc2F)CC1 [Example 124, 2-Fluoro-N-[1-(methoxymethyl)cyclopropyl]-4-[7-(quinolin-6-ylmethyl)imidazo[1,2-b][1,2,4]triazin-2-yl]benzamide] | < 500 |
| CC(NC(=O)c1ccc(-c2cnc3ncc(Cc4ccc5ncccc5c4)n3n2)cc1F)c1ccncc1 (centres unmarked) [Example 156, 2-Fluoro-N-(1-pyridin-4-ylethyl)-4-[7-(quinolin-6-ylmethyl)imidazo[1,2-b][1,2,4]triazin-2-yl]benzamide] | < 500 |
| COCC1(NC(=O)c2ccc(-c3cnc4ncc(C5(c6ccc7ncccc7c6)CC5)n4n3)cc2)CCOCC1 [Example 118] | < 500 |
| CNC(=O)[C@H](C)NC(=O)c1ccc(-c2cnc3ncc(C4(c5ccc6ncccc6c5)CC4)n3c2)cc1 [Example 50, N-[(1S)-1-Methyl-2-(methylamino)-2-oxoethyl]-4-[3-(1-quinolin-6-ylcyclopropyl)imidazo[1,2-a]pyrimidin-6-yl]benzamide] | < 500 |
| COCC1(NC(=O)c2ccc(-c3cnc4ncc(C(C)c5ccc6ncccc6c5)n4n3)cc2F)CC1 (centres unmarked) [Example 162, 2-Fluoro-N-[1-(methoxymethyl)cyclopropyl]-4-[7-(1-quinolin-6-ylethyl)imidazo[1,2-b][1,2,4]triazin-2-yl]benzamide] | < 500 |
| O=C(NCCOc1ccccn1)c1ccc(-c2cnc3ncc(C4(c5ccc6ncccc6c5)CC4)n3c2)cc1 [Example 40, N-[2-(Pyridin-2-yloxy)ethyl]-4-[3-(1-quinolin-6-ylcyclopropyl)imidazo[1,2-a]pyrimidin-6-yl]benzamide] | < 500 |
| c1cnc2ccc(C3(c4cnc5ncc(-c6cnn(C7CCOC7)c6)cn45)CC3)cc2c1 (centres unmarked) [Example 88, 6-(1-{6-[1-(Tetrahydrofuran-3-yl)-1H-pyrazol-4-yl]imidazo[1,2-a]pyrimidin-3-yl}cyclopropyl)quinoline] | < 500 |
| CNC(=O)c1ccc(-c2cnc3ncc(C4(c5ccc6ncccc6c5)CC4)n3c2)c(F)c1F [Example 194, 2,3-Difluoro-N-methyl-4-[3-(1-quinolin-6-ylcyclopropyl)imidazo[1,2-a]pyrimidin-6-yl]benzamide] | < 500 |
| O=C(NC1CCOCC1)c1ccc(-c2cnc3ncc(C4(c5ccc6ncccc6c5)CC4)n3n2)cc1 [Example 113, 4-(7-(1-(Quinolin-6-yl)cyclopropyl)imidazo[1,2-b][1,2,4]triazin-2-yl)-N-(tetrahydro-2H-pyran-4-yl)benzamide] | < 500 |
| O=C(NCCN1CCCCC1)c1ccc(-c2cnc3ncc(Cc4ccc5ncccc5c4)n3n2)cc1F [Example 149, 2-Fluoro-N-(2-piperidin-1-ylethyl)-4-[7-(quinolin-6-ylmethyl)imidazo[1,2-b][1,2,4]triazin-2-yl]benzamide] | < 500 |
| O=C1c2ccc(-c3cnc4ncc(C5(c6ccc7ncccc7c6)CC5)n4c3)cc2CN1Cc1ccccn1 [Example 185, 2-(Pyridin-2-ylmethyl)-5-[3-(1-quinolin-6-ylcyclopropyl)imidazo[1,2-a]pyrimidin-6-yl]isoindolin-1-one] | < 500 |
| N#CC1CCN(C(=O)c2ccc(-c3cnc4ncc(C5(c6ccc7ncccc7c6)CC5)n4c3)cc2)C1 (stereo in doubt) [Example 52, (3R)-1-{4-[3-(1-Quinolin-6-ylcyclopropyl)imidazo[1,2-a]pyrimidin-6-yl]benzoyl}pyrrolidine-3-carbonitrile] | < 500 |
| CNS(=O)(=O)c1ccc(-c2cnc3ncc(C4(c5ccc6ncccc6c5)CC4)n3c2)cc1F [Example 196, 2-Fluoro-N-methyl-4-[3-(1-quinolin-6-ylcyclopropyl)imidazo[1,2-a]pyrimidin-6-yl]benzenesulfonamide] | < 500 |
| O=C(NC1(c2ccccn2)CC1)c1ccc(-c2cnc3ncc(C4(c5ccc6ncccc6c5)CC4)n3n2)cc1 [Example 109, N-(1-Pyridin-2-ylcyclopropyl)-4-[7-(1-quinolin-6-ylcyclopropyl)imidazo[1,2-b][1,2,4]triazin-2-yl]benzamide] | < 500 |
| CC(C)(C)[C@H](NC(=O)c1ccc(-c2cnc3ncc(C4(c5ccc6ncccc6c5)CC4)n3c2)cc1)C(=O)N1CCC1 [Example 45, N-[(1S)-1-(Azetidin-1-ylcarbonyl)-2,2-dimethylpropyl]-4-[3-(1-quinolin-6-ylcyclopropyl)imidazo[1,2-a]pyrimidin-6-yl]benzamide] | < 500 |
| COCC1(NC(=O)c2ccc(-c3cnc4ncc(C5(c6ccc7ncccc7c6)CC5)n4c3)cc2)CCC1 [Example 36, N-[1-(Methoxymethyl)cyclobutyl]-4-[3-(1-quinolin-6-ylcyclopropyl)imidazo[1,2-a]pyrimidin-6-yl]benzamide] | < 500 |

| Compound | IC50 [nM] |
| --- | --- |
| COCC1(NC(=O)c2ccc(-c3cnc4ncc(Cc5ccc6ncccc6c5)n4n3)cc2F)CCOCC1 [Example 145, 2-Fluoro-N-[4-(methoxymethyl)tetrahydro-2H-pyran-4-yl]-4-[7-(quinolin-6-ylmethyl)imidazo[1,2-b][1,2,4]triazin-2-yl]benzamide] | < 500 |
| OC1CCC(n2cc(-c3cnc4ncc(C5(c6ccc7ncccc7c6)CC5)n4c3)cn2)CC1 (centres unmarked) [Example 92, 4-{4-[3-(1-Quinolin-6-ylcyclopropyl)imidazo[1,2-a]pyrimidin-6-yl]-1H-pyrazol-1-yl}cyclohexanol] | < 500 |
| O=C(NC1CCOCC1)c1ccc(-c2cnc3ncc(Cc4ccc5ncccc5c4)n3n2)cc1F [Example 125, 2-Fluoro-4-[7-(quinolin-6-ylmethyl)imidazo[1,2-b][1,2,4]triazin-2-yl]-N-(tetrahydro-2H-pyran-4-yl)benzamide] | < 500 |
| CNC(=O)c1ccc(-c2cnc3ncc(C4(c5ccc6ncccc6c5)CC4)n3n2)cc1F [Example 102, 2-Fluoro-N-methyl-4-[7-(1-quinolin-6-ylcyclopropyl)imidazo[1,2-b][1,2,4]triazin-2-yl]benzamide] | < 500 |
| COC(=O)N1CCC(n2cc(-c3cnc4ncc(Cc5ccc6ncccc6c5)n4n3)cn2)CC1 [Example 141, Methyl 4-{4-[7-(quinolin-6-ylmethyl)imidazo[1,2-b][1,2,4]triazin-2-yl]-1H-pyrazol-1-yl}piperidine-1-carboxylate] | < 500 |
| COCC1(NC(=O)c2ccc(-c3cnc4ncc(C5(c6ccc7ncccc7c6)CC5)n4n3)cc2)CCC1 [Example 116, N-[1-(Methoxymethyl)cyclobutyl]-4-[7-(1-quinolin-6-ylcyclopropyl)imidazo[1,2-b][1,2,4]triazin-2-yl]benzamide] | < 500 |
| O=C(N[C@@H]1CCOC1)c1ccc(-c2cnc3ncc(C4(c5ccc6ncccc6c5)CC4)n3c2)cc1F [Example 168, 2-Fluoro-4-[3-(1-quinolin-6-ylcyclopropyl)imidazo[1,2-a]pyrimidin-6-yl]-N-[(3R)-tetrahydrofuran-3-yl]benzamide] | < 500 |
| CNC(=O)[C@@H](C)NC(=O)c1ccc(-c2cnc3ncc(C4(c5ccc6ncccc6c5)CC4)n3c2)cc1 [Example 51, N-[(1R)-1-Methyl-2-(methylamino)-2-oxoethyl]-4-[3-(1-quinolin-6-ylcyclopropyl)imidazo[1,2-a]pyrimidin-6-yl]benzamide] | < 500 |
| CC(COc1ccccn1)NC(=O)c1ccc(-c2cnc3ncc(C4(c5ccc6ncccc6c5)CC4)n3c2)cc1Cl (centres unmarked) [Example 180, 2-Chloro-N-[1-methyl-2-(pyridin-2-yloxy)ethyl]-4-[3-(1-quinolin-6-ylcyclopropyl)imidazo[1,2-a]pyrimidin-6-yl]benzamide] | < 500 |
| CC(NC(=O)c1ccc(-c2cnc3ncc(Cc4ccc5ncccc5c4)n3n2)cc1F)c1cccnc1 (centres unmarked) [Example 155, 2-Fluoro-N-(1-pyridin-3-ylethyl)-4-[7-(quinolin-6-ylmethyl)imidazo[1,2-b][1,2,4]triazin-2-yl]benzamide] | < 500 |
| O=C(NC1CC1)c1ccc(-c2cnc3ncc(C4(c5ccc6ncccc6c5)CC4)n3n2)cc1 [Example 107] | < 500 |
| CNC(=O)c1cc(F)c(-c2cnc3ncc(C4(c5ccc6ncccc6c5)CC4)n3c2)cc1F [Example 77, 2,5-Difluoro-N-methyl-4-[3-(1-quinolin-6-ylcyclopropyl)imidazo[1,2-a]pyrimidin-6-yl]benzamide] | < 500 |
| CN(C(=O)c1ccc(-c2cnc3ncc(C4(c5ccc6ncccc6c5)CC4)n3n2)cc1)C1CC1 [Example 114, N-Cyclopropyl-N-methyl-4-[7-(1-quinolin-6-ylcyclopropyl)imidazo[1,2-b][1,2,4]triazin-2-yl]benzamide] | < 500 |
| CCNC(=O)C1(c2ccc(-c3cnc4ncc(C5(c6ccc7ncccc7c6)CC5)n4c3)cc2)CC1 [Example 187, N-Ethyl-1-{4-[3-(1-quinolin-6-ylcyclopropyl)imidazo[1,2-a]pyrimidin-6-yl]phenyl}cyclopropanecarboxamide] | < 500 |
| CN(C)CCNC(=O)c1ccc(-c2cnc3ncc(Cc4ccc5ncccc5c4)n3n2)cc1F [Example 148, N-[2-(Dimethylamino)ethyl]-2-fluoro-4-[7-(quinolin-6-ylmethyl)imidazo[1,2-b][1,2,4]triazin-2-yl]benzamide] | < 500 |
| CC(=O)N1CCC(CC#N)(n2cc(-c3cnc4ncc(Cc5ccc6ncccc6c5)n4n3)cn2)CC1 [Example 205, (1-Acetyl-4-{4-[7-(quinolin-6-ylmethyl)imidazo[1,2-b][1,2,4]triazin-2-yl]-1H-pyrazol-1-yl}piperidin-4-yl)acetonitrile] | < 500 |
